The source of these data is patent US12203125B2, “Device for determining antimicrobial susceptibility of a microorganism” (Q-linea AB, priority 2015, dated 2025).

Converted amounts (≈) assume the structure as drawn.

Common to all, as to type: cell-based
Test [1] concerns clinical isolate QM006. Nature of the test: Rapid AST: MIC calculated from microphotographs (biomass imaging, 0 to 4 hours) of isolate recovered from blood culture flask below 0.5 McFarland. On the procedure: (§1) Dilutions of two different bacterial clinical isolates were seeded into an aerobic blood culture flask (Bactec, Becton Dickinson) at an estimated concentration of either 1 or 10 CFU/ml blood. Before seeding, the BCF had been filled with human blood from healthy donors. Aliquots from the dilution series were plated on agar and grown over night for viable count. Target concentration was 10 or 100 CFU seeded in 0.5 ml per BCF, corresponding to approximately 1 or 10 CFU/ml blood. The seeded BCF were allowed to incubate for 8 hours at 35° C. and a 5 ml aliquot were taken for subsequent AST. Another aliquot from the same BCF was used for determination of viable count after 8 hours' growth in the BCF.
(§2) A 5 ml aliquot of the cultured clinical isolate from the blood culture flask was filtered using a 100 μm filter to remove resin particles from the culture medium. The sample was thereafter mixed with a 10 ml of lysis buffer capable of selectively lysing any non-microbial cells present in the sample, and incubated for a sufficient amount of time for the non-microbial cells to be lysed. The resulting lysate was filtered through a 0.2 μm filter. Liquid components of the lysate (including components of the lysed non-microbial cells) passed through the filter, whereas microbial cells present in the sample were retained on the filter.
(§3) The retained microbial cells were re-suspended in liquid Mueller Hinton broth medium to form a microbial culture preparation, by back-flushing the filter with culture medium (i.e. flowing the culture medium in the opposite direction to filtration). 100 μl aliquots of the microbial culture preparation were then dispensed into wells of a microtiter plate.
(§4) The wells of the microtiter plate contained between 5 and 13 different concentrations of an antibiotic and different antibiotics. A negative control (i.e. comprising a blood sample with no seeded bacteria) and a positive control sample (i.e. an aliquot of the sample from a seeded BCF but into a well with no antimicrobial agent) were also set up at this stage.
(§5) Focus was performed on each inoculated well and each well was read at intervals of 1 hour. A total of 5 images were taken at time points from 0 to 4 hours after the initiation of the AST assay. The degree of microbial growth in each growth condition was monitored by imaging, by measuring the amount of microbial biomass in each well.
(§6) Microphotographs from the different wells were analysed to generate a numerical value of the biomass in the well and this was used as a marker of growth. From the growth a minimal inhibitory concentration was determined and compared to MIC obtained using a reference method, broth micro-dilution. […] A sample was determined to Pass (P) if within +/−1 two-fold dilution from the reference MIC.

Test [2] deals with clinical isolate QM171. The description is as above. On the procedure: as §1, §2, §3, §4, §5, §6
The subject of test [3] is clinical isolate QM006. The test is described as follows: Reference MIC, broth micro-dilution (ISO 20776, turbidity after 16-20 hours). Conditions: isolate QM006, broth micro-dilution from 0.5 McFarland, 16-20 hours growth. For orientation: Broth dilution looks for growth in wells or tubes with falling amounts of substance.
Test [4] deals with clinical isolate QM171. The test is described as above. Conditions: isolate QM171, broth micro-dilution from 0.5 McFarland, 16-20 hours growth. As to the method: as §6
The subject of test [5] is gentamicin resistant E. coli strain. Nature of the test: AST by imaging at different starting titers. Conditions: starting concentration 2×10^6 CFU/ml (Lane B) vs 3×10^5 CFU/ml (Lane A), four hours growth. From the text:
E. coli grown in blood+BCF media were recovered via a clean-up procedure to remove blood components and only retain viable bacteria in MH-media. Adjustment of the recovered bacteria were made to ensure different titers are used at start of the AST. AST assays were set up to a starting concentration of 3×10^5 CFU/ml (Lane A) and 2×10^6 CFU/ml (Lane B) of a gentamicin resistant E. coli strain. Aliquots of the recovered bacteria were dispensed into a microtiter plate with freeze dried antibiotics at varying concentrations and allowed to grow for four hours before imaging. Shown are microphotographs from a series of different concentration of antibiotics in two-fold dilutions ranging from 64 mg/l to 0.0625 mg/l of gentamicin.

Setting [6] is: isolate QM006, experiment repeat no. 1, imaging after 4 h.
[7] abbreviates: isolate QM006, experiment repeat no. 2, imaging after 4 h.
Where [8] appears, read: isolate QM006, experiment repeat no. 3, imaging after 4 h.
Setting [9] is: isolate QM006, experiment repeat no. 4, imaging after 4 h.
The mark [10] stands for this setting: isolate QM006, experiment repeat no. 5, imaging after 4 h.
The mark [11] stands for this setting: isolate QM006, experiment repeat no. 6, imaging after 4 h.
Setting [12] is: isolate QM006, experiment repeat no. 7, imaging after 4 h.
[13] abbreviates: isolate QM006, experiment repeat no. 8, imaging after 4 h.
Where [14] appears, read: isolate QM006, experiment repeat no. 9, imaging after 4 h.
The mark [15] stands for this setting: isolate QM171, experiment repeat no. 1, imaging after 4 h.
Where [16] appears, read: isolate QM171, experiment repeat no. 2, imaging after 4 h.
Where [17] appears, read: isolate QM171, experiment repeat no. 3, imaging after 4 h.
Where [18] appears, read: isolate QM171, experiment repeat no. 4, imaging after 4 h.
The mark [19] stands for this setting: isolate QM171, experiment repeat no. 5, imaging after 4 h.
Where [20] appears, read: isolate QM171, experiment repeat no. 6, imaging after 4 h.
The mark [21] stands for this setting: isolate QM171, experiment repeat no. 7, imaging after 4 h.

For the compound `CO/N=C(\C(=O)N[C@@H]1C(=O)N2C(C(=O)O)=C(COC(C)=O)CS[C@H]12)c1csc(N)n1` [Cefotaxime], the MIC calculated from microphotographs in the test on clinical isolate QM006 [1] (setting [6]) was greater than 8 µg/mL; in the test on clinical isolate QM006 [1] (setting [7]) it was greater than 16 µg/mL; in the test on clinical isolate QM006 [1] (setting [8]), greater than 16 µg/mL; with clinical isolate QM006 [1] (setting [9]), greater than 16 µg/mL; in the test with clinical isolate QM006 [1] (setting [10]) it was greater than 16 µg/mL; in the test with clinical isolate QM006 [1] (setting [11]) it was greater than 16 µg/mL. The MIC calculated from microphotographs in the test on clinical isolate QM006 [1] (setting [12]) is greater than 16 µg/mL; in the test on clinical isolate QM006 [1] (setting [13]), greater than 16 µg/mL; with clinical isolate QM006 [1] (setting [14]), greater than 16 µg/mL; in the test on clinical isolate QM171 [2] (setting [15]), 8 µg/mL (≈ 17.6 µM); in the test on clinical isolate QM171 [2] (setting [16]) it was greater than 16 µg/mL; in the test with clinical isolate QM171 [2] (setting [17]), greater than 16 µg/mL. The MIC calculated from microphotographs with clinical isolate QM171 [2] (setting [18]) was greater than 16 µg/mL; in the test on clinical isolate QM171 [2] (setting [19]) it was greater than 16 µg/mL; in the test on clinical isolate QM171 [2] (setting [20]) it was 16 µg/mL (≈ 35.1 µM); in the test with clinical isolate QM171 [2] (setting [21]) it was 16 µg/mL (≈ 35.1 µM). The Reference MIC in the test with clinical isolate QM006 [3] and in the test on clinical isolate QM171 [4] was greater than 8 µg/mL each time.
With `CC(C)(O/N=C(\C(=O)N[C@@H]1C(=O)N2C(C(=O)[O-])=C(C[n+]3ccccc3)CS[C@H]12)c1csc(N)n1)C(=O)O` [Ceftazidime], the MIC calculated from microphotographs in the test with clinical isolate QM006 [1] (setting [6]) was 8 µg/mL (≈ 14.6 µM); in the test with clinical isolate QM006 [1] (setting [7]) it was 16 µg/mL (≈ 29.3 µM); in the test with clinical isolate QM006 [1] (setting [8]), 8 µg/mL (≈ 14.6 µM); in the test with clinical isolate QM006 [1] (setting [9]), 8 µg/mL (≈ 14.6 µM); in the test on clinical isolate QM006 [1] (setting [10]), 8 µg/mL (≈ 14.6 µM); with clinical isolate QM006 [1] (setting [11]) it was 16 µg/mL (≈ 29.3 µM). Also, the MIC calculated from microphotographs is 8 µg/mL (≈ 14.6 µM) with clinical isolate QM006 [1] (setting [12]); 16 µg/mL (≈ 29.3 µM) in the test with clinical isolate QM006 [1] (setting [13]); 8 µg/mL (≈ 14.6 µM) in the test on clinical isolate QM006 [1] (setting [14]); 2 µg/mL (≈ 3.66 µM) in the test with clinical isolate QM171 [2] (setting [15]); 2 µg/mL (≈ 3.66 µM) in the test on clinical isolate QM171 [2] (setting [16]); 2 µg/mL (≈ 3.66 µM) in the test on clinical isolate QM171 [2] (setting [17]). In addition, the MIC calculated from microphotographs in the test on clinical isolate QM171 [2] (setting [18]) is 2 µg/mL (≈ 3.66 µM); in the test with clinical isolate QM171 [2] (setting [19]), 2 µg/mL (≈ 3.66 µM); with clinical isolate QM171 [2] (setting [20]), 2 µg/mL (≈ 3.66 µM); with clinical isolate QM171 [2] (setting [21]), 1 µg/mL (≈ 1.83 µM). Also, the Reference MIC amounted to 16 µg/mL in the test on clinical isolate QM006 [3] and 2 µg/mL in the test with clinical isolate QM171 [4].
For the compound `C[C@@H](O)[C@H]1C(=O)N2C(C(=O)O)=C(S[C@@H]3CN[C@H](C(=O)N(C)C)C3)[C@H](C)[C@H]12` [Meropenem], the MIC calculated from microphotographs with clinical isolate QM006 [1] (setting [6]) is no more than 0.5 µg/mL; in the test with clinical isolate QM006 [1] (setting [7]) it was no more than 0.5 µg/mL; in the test on clinical isolate QM006 [1] (setting [8]), no more than 0.5 µg/mL; in the test with clinical isolate QM006 [1] (setting [9]), 1 µg/mL (≈ 2.61 µM); in the test on clinical isolate QM006 [1] (setting [10]), no more than 0.5 µg/mL; in the test with clinical isolate QM006 [1] (setting [11]) it was no more than 0.5 µg/mL. The MIC calculated from microphotographs in the test on clinical isolate QM006 [1] (setting [12]), in the test on clinical isolate QM006 [1] (setting [13]), in the test with clinical isolate QM006 [1] (setting [14]), in the test on clinical isolate QM171 [2] (setting [15]), with clinical isolate QM171 [2] (setting [16]) and with clinical isolate QM171 [2] (setting [17]) was no more than 0.5 µg/mL throughout. In addition, the MIC calculated from microphotographs with clinical isolate QM171 [2] (setting [18]), in the test with clinical isolate QM171 [2] (setting [19]), in the test on clinical isolate QM171 [2] (setting [20]) and with clinical isolate QM171 [2] (setting [21]) was no more than 0.5 µg/mL in each case. The Reference MIC with clinical isolate QM006 [3] is no more than 0.5 µg/mL; with clinical isolate QM171 [4], 1 µg/mL.
As to Gentamicin, the MIC calculated from microphotographs with clinical isolate QM006 [1] (setting [6]), in the test with clinical isolate QM006 [1] (setting [7]), in the test on clinical isolate QM006 [1] (setting [8]), in the test on clinical isolate QM006 [1] (setting [9]), with clinical isolate QM006 [1] (setting [10]) and in the test on clinical isolate QM006 [1] (setting [11]) was 16 µg/mL each time. The MIC calculated from microphotographs in the test with clinical isolate QM006 [1] (setting [12]) is 16 µg/mL; in the test on clinical isolate QM006 [1] (setting [13]), 16 µg/mL; with clinical isolate QM006 [1] (setting [14]), 16 µg/mL; in the test with clinical isolate QM171 [2] (setting [15]), 0.5 µg/mL; with clinical isolate QM171 [2] (setting [16]) it was 0.5 µg/mL; with clinical isolate QM171 [2] (setting [17]) it was 0.5 µg/mL. For the same compound, the MIC calculated from microphotographs in the test with clinical isolate QM171 [2] (setting [18]) is 0.5 µg/mL; with clinical isolate QM171 [2] (setting [19]) it was 0.5 µg/mL; with clinical isolate QM171 [2] (setting [20]) it was 0.5 µg/mL; with clinical isolate QM171 [2] (setting [21]), 0.25 µg/mL. The figures for the Reference MIC in the test with clinical isolate QM006 [3] and in the test on clinical isolate QM171 [4] were greater than 16 µg/mL and no more than 0.5 µg/mL, respectively. Besides, the “MIC value at higher bacterial titer compared with lower titer” value in test [5] is listed as “higher MIC value”.
